Reference: US7438926B2, “Methods for inhibiting decrease in transdermal drug flux by inhibition of pathway closure” (Alza Corporation, priority 2000, dated 2008)
“And” between values parts separate entries of the source, which are not always exact repeats. Identical values can stand only once. Counter-ions that a name gives are not always drawn. Ends that are not written are not given here.

Assays:
pathway closure = test: Inhibition of pathway closure by chemicals, methylene blue dye score after microprotrusion array pretreatment; assay type: in vivo, hairless guinea pigs
Protocol: Inhibition of pathway collapse by chemical agents was studied following pretreatment of the skin with a microprotrusion array and application of a formulation containing the agent for 24 h. Quantitation was performed by evaluation of dye impregnation of the pathways.
Application of the microprotrusion array was performed with an impact applicator. […] Following application, the stretching tension was released. […] The guinea pig received a second system containing a different formulation on the opposite site. Twenty four hours after application, three systems from each group were removed and residual formulation washed from the skin. The skin was stained with a 1% methylene blue solution. Excess dye was thoroughly removed with 70% isopropyl alcohol pads and a picture of the site was taken. Pictures were scored on a 0 to 5 scale, 5 being the dye uptake obtained immediately following microprotrusion array application and 0 being the dye uptake obtained after 24 h contact with a control formulation. A score of 0.5 or greater was considered significant. Various osmotic agents, anticoagulants, antiinflammatory agents, gelling agents as well as gels of different pH and various additives were tested (Table II).

[1] = Passive intracutaneous delivery of plasmid DNA vaccine with microprotrusion array (skin biopsy, PCR); assay type: in vivo, hairless guinea pigs; details: for Increase in plasmid DNA delivered as compared to the control formulation: at one hour, 3% citric acid trisodium salt or 1% Tween 80 in formulation
Protocol: Feasibility studies were conducted in hairless guinea pigs (HGPs) to determine whether passive intracutaneous delivery of a plasmid DNA vaccine (pCMV-AYW-HBs-Mkan), which encodes for hepatitis B surface antigen [HBsAg]), could be achieved using Macroflux. […] Application of the microprotrusion array was performed with an impact applicator. The system applied comprised a foam double adhesive ring (diameter 2.5 cm, thickness 0.08 cm) with a 1 cm^2 reservoir in the middle.
One of two configurations of microprotrusion arrays were used. Each configuration has a total surface area of 2 cm^2 and an active total blade surface area of 1 cm^2.
A microprotrusion array of the selected type was adhered to the adhesive foam and covered the bottom of the reservoir (after application, the microprotrusion array is in contact with the skin). Following application, the stretching tension was released and the microprotrusion array was left in situ. […] At 1 hour after application, two systems from each group were removed and residual formulation washed from the skin. The amount of drug penetrated at that time was determined in a 6 mm diameter full thickness skin biopsy taken at the skin site. The biopsy was dissolved in a digestion buffer (sodium dodecyl sulfate/proteinase K) and relevant DNA content was evaluated by polymerase chain (PCR) reaction followed by electrophoresis of the PCR product. A positive control group was included which consisted of 10 μg plasmid DNA injected intradermally. Negative controls consisted of the plasmid DNA applied on the skin without the use of a microprotrusion array. […].

[2] = 24 h, methylene blue evaluation, Table II
[3] = additive concentration 11%, 24 h, scale 0 to 5, 0.5 or greater significant
[4] = additive concentration 23%, 24 h, scale 0 to 5, 0.5 or greater significant
[5] = additive concentration 50%, 24 h, scale 0 to 5, 0.5 or greater significant
[6] = additive concentration 2%, 24 h, scale 0 to 5, 0.5 or greater significant
[7] = additive concentration 1%, 24 h, scale 0 to 5, 0.5 or greater significant
[8] = additive concentration 5%, 24 h, scale 0 to 5, 0.5 or greater significant
[9] = additive concentration 10%, 24 h, scale 0 to 5, 0.5 or greater significant
[10] = additive concentration 30%, 24 h, scale 0 to 5, 0.5 or greater significant
[11] = additive concentration 13%, 24 h, scale 0 to 5, 0.5 or greater significant
[12] = additive concentration 12%, 24 h, scale 0 to 5, 0.5 or greater significant
[13] = additive concentration 0.05%, 24 h, scale 0 to 5, 0.5 or greater significant

CCC(O)CO (stereo not drawn) [1-2 Butane diol]
Score (methylene blue) (pathway closure; guinea pig, in vivo): 2.0 ± 0.8

CC(O)CCO (stereo not drawn) [1-3 Butane diol]
Score (methylene blue) (pathway closure; guinea pig, in vivo): 0.2 ± 0.2

OCCCCO [1-4 Butane diol]
Score (methylene blue) (pathway closure; guinea pig, in vivo): 3.0 ± 0.3

CC(O)C(C)O (stereo not drawn) [2-3 Butane diol]
Score (methylene blue) (pathway closure; guinea pig, in vivo): 2.2 ± 0.2

OC[C@@H](O)[C@@H](O)[C@@H](O)CO [Adonitol]
Effect on pathway closure (in words) (pathway closure; [2]): most effective agents
Score (methylene blue) (pathway closure; [3]): 3.0 ± 0.3
Score (methylene blue) (pathway closure; [4]): 3.5 ± 0.3
Score (methylene blue) (pathway closure; [5]): 3.7 ± 0.3

CC(=O)O.N [Ammonium acetate]
Score (methylene blue) (pathway closure; guinea pig, in vivo): 2.1 ± 0.1

Cl.N [Ammonium chloride]
Score (methylene blue) (pathway closure; guinea pig, in vivo): 2.6 ± 0.1

C[C@H]1C[C@H]2[C@@H]3CCC4=CC(=O)C=C[C@]4(C)[C@@]3(F)[C@@H](O)C[C@]2(C)[C@@]1(O)C(=O)COP(=O)([O-])[O-].[Na+].[Na+] [Betamethasone phospate Na, reference compound]
Effect on pathway closure (in words) (pathway closure; [2]): significant effect
Score (methylene blue) (pathway closure; [6]): 2.3 ± 0.4

[Ca+2].[Cl-].[Cl-] [Calcium chloride]
Score (methylene blue) (pathway closure; guinea pig, in vivo): 0.7 ± 0.4

CCCCCCCCCCCCCCCC[n+]1ccccc1 [Cetyl pyridinium chloride]
Score (methylene blue) (pathway closure; guinea pig, in vivo): 0 ± 0

O=C(O)CC(O)(CC(=O)O)C(=O)O [Citric acid disodium salt]
Score (methylene blue) (pathway closure; additive concentration 0.5%, 24 h, scale 0 to 5, 0.5 or greater significant): 0 ± 0
Score (methylene blue) (pathway closure; [7]): 0.3 ± 0.2
Score (methylene blue) (pathway closure; additive concentration 3%, 24 h, scale 0 to 5, 0.5 or greater significant): 1.2 ± 0.2

C=C1[C@@H](C)[C@H]2[C@H](Cc3ccccc3)NC(=O)[C@]23[C@H](OC(C)=O)/C=C/[C@@](C)(O)C(=O)[C@@H](C)C/C=C/[C@H]3[C@@H]1O [Cytochalasin D, reference compound]
Score (methylene blue) (pathway closure; additive concentration 0.025%, 24 h, scale 0 to 5, 0.5 or greater significant): 1.5 ± 0.0

O=C[C@H](O)[C@@H](O)[C@H](O)[C@H](O)CO [D-Glucose]
Effect on pathway closure (in words) (pathway closure; [2]): most effective agents
Score (methylene blue) (pathway closure; [8]): 1.5 ± 0.0
Score (methylene blue) (pathway closure; [3]): 1.8 ± 0.6
Score (methylene blue) (pathway closure; [4]): 3.5 ± 0.5
Score (methylene blue) (pathway closure; [5]): 4.0 ± 0.3

OCCOCCO [Diethylene glycol]
Effect on pathway closure (in words) (pathway closure; guinea pig, in vivo): most effective agents
Score (methylene blue) (pathway closure; guinea pig, in vivo): 3.2 ± 0.2

C[S+](C)[O-] [Dimethylsulfoxide]
Score (methylene blue) (pathway closure; [9]): 1.0 ± 0.0

O=C(O)CN(CCN(CC(=O)O)CC(=O)O)CC(=O)O [EDTA]
Effect on pathway closure (in words) (pathway closure; guinea pig, in vivo): most effective agents in preventing pathway closure
Score (methylene blue) (pathway closure; guinea pig, in vivo): 1.3 ± 0.2

OC[C@@H](O)[C@@H](O)CO [Erythritol]
Score (methylene blue) (pathway closure; [10]): 3.3 ± 0.4

CCO [Ethanol]
Score (methylene blue) (pathway closure; additive concentration 0% (4.3 M), 24 h, scale 0 to 5, 0.5 or greater significant): 0 ± 0

CCOCCOCCO [Ethoxydiglycol]
Score (methylene blue) (pathway closure; [5]): 0.5 ± 0.3

Cl.N[C@H]1C(O)O[C@H](CO)[C@H](O)[C@@H]1O (stereo partly drawn) [Galactosamine hydrochloride]
Score (methylene blue) (pathway closure; [5]): 2.8 ± 0.3

O=C([O-])[C@H](O)[C@@H](O)[C@H](O)[C@H](O)CO.[Na+] [Gluconic acid sodium salt]
Score (methylene blue) (pathway closure; [9]): 2.7 ± 0.2
Score (methylene blue) (pathway closure; [11]): 3.3 ± 0.0
Score (methylene blue) (pathway closure; [10]): 4.5 ± 0.0

O=C[C@H](O)[C@@H](O)[C@H](O)[C@H](O)C(=O)[O-].[Na+] [Glucuronic acid sodium salt]
Effect on pathway closure (in words) (pathway closure; [2]): most effective agents
Score (methylene blue) (pathway closure; [8]): 1.0 ± 0.0
Score (methylene blue) (pathway closure; [9]): 3.5 ± 0.3
Score (methylene blue) (pathway closure; [11]): 3.0 ± 0.3

NCC(=O)O [Glycine]
Score (methylene blue) (pathway closure; additive concentration 9%, 24 h, scale 0 to 5, 0.5 or greater significant): 1.8 ± 0.3

O=C(O)CO [Glycolic acid, sodium salt]
Score (methylene blue) (pathway closure; additive concentration 6%, 24 h, scale 0 to 5, 0.5 or greater significant): 1.7 ± 0.1
Score (methylene blue) (pathway closure; [12]): 2.6 ± 0.1
Score (methylene blue) (pathway closure; additive concentration 24%, 24 h, scale 0 to 5, 0.5 or greater significant): 2.7 ± 0.1

O[C@H]1[C@H](O)[C@@H](O)[C@H](O)[C@@H](O)[C@H]1O [Inositol]
Score (methylene blue) (pathway closure; [9]): 1.5 ± 0.3

CC(C)O [Isopropyl alcohol]
Score (methylene blue) (pathway closure; [10]): 0.2 ± 0.2

CC(C(=O)O)c1cccc(C(=O)c2ccccc2)c1 (stereo not drawn) [Ketoprofen Na, reference compound]
Effect on pathway closure (in words) (pathway closure; [2]): significant effect
Score (methylene blue) (pathway closure; [6]): 2.3 ± 0.6

O=C[C@@H](O)[C@H](O)[C@@H](O)[C@@H](O)CO [L-Glucose]
Score (methylene blue) (pathway closure; [4]): 3.5 ± 0.3

O=C(O)CC(O)C(=O)O (stereo not drawn) [Malic acid, disodium salt]
Score (methylene blue) (pathway closure; [3]): 2.1 ± 0.3

[Cl-].[Na+] [NaCl]
Score (methylene blue) (pathway closure; guinea pig, in vivo): 1.8 ± 0.2

CC(O)CO (stereo not drawn) [Propylene glycol]
Score (methylene blue) (pathway closure; [10]): 0.7 ± 0.2
Score (methylene blue) (pathway closure; [5]): 1.3 ± 0.1
Score (methylene blue) (pathway closure; additive concentration 70%, 24 h, scale 0 to 5, 0.5 or greater significant): 1.0 ± 0.6

O=C[C@H](O)[C@H](O)[C@H](O)CO [Ribose]
Score (methylene blue) (pathway closure; [5]): 2.3 ± 0.3

CC(=O)[O-].[Na+] [Sodium acetate]
Score (methylene blue) (pathway closure; guinea pig, in vivo): 1.7 ± 0.1

CCCCCCCCCCCCOS(=O)(=O)[O-].[Na+] [Sodium dodecyl sulfate]
Score (methylene blue) (pathway closure; additive concentration 0.01%, 24 h, scale 0 to 5, 0.5 or greater significant): 0 ± 0

OC[C@@H](O)[C@@H](O)[C@H](O)[C@@H](O)CO [Sorbitol]
Effect on pathway closure (in words) (pathway closure; [2]): most effective agents
Score (methylene blue) (pathway closure; [3]): 1.3 ± 0.6
Score (methylene blue) (pathway closure; [4]): 3.3 ± 0.3
Score (methylene blue) (pathway closure; [5]): 3.3 ± 0.3

OC[C@H]1O[C@@](CO)(O[C@H]2O[C@H](CO)[C@@H](O)[C@H](O)[C@H]2O)[C@@H](O)[C@@H]1O [Sucrose]
Score (methylene blue) (pathway closure; [5]): 1.7 ± 0.6

O=C(O)C(O)C(O)C(=O)O (stereo not drawn) [Tartaric acid, disodium salt]
Score (methylene blue) (pathway closure; [12]): 1.5 ± 0.4

OC[C@H]1O[C@H](O[C@H]2O[C@H](CO)[C@@H](O)[C@H](O)[C@H]2O)[C@H](O)[C@@H](O)[C@@H]1O [Trehalose]
Score (methylene blue) (pathway closure; [5]): 1.5 ± 0.0

OCCOCCOCCO [Triethylene glycol]
Score (methylene blue) (pathway closure; [9]): 1.3 ± 0.3
Score (methylene blue) (pathway closure; [10]): 3.3 ± 0.3
Score (methylene blue) (pathway closure; [5]): 3.7 ± 0.3

Cl.NC(CO)(CO)CO [Tromethamine hydrochloride]
Effect on pathway closure (in words) (pathway closure; guinea pig, in vivo): most effective agents
Score (methylene blue) (pathway closure; guinea pig, in vivo, hydrochloride): 3.7 ± 0.3 and 2.3 ± 0.3

CCCCCCCC/C=C\CCCCCCCC(=O)OCCOCC(OCCO)C1OCC(OCCO)C1OCCO (stereo not drawn) [Tween 80]
Increase in plasmid DNA delivered as compared to the control formulation [1]: no significant enhancement

O=C(O)CC(O)(CC(=O)O)C(=O)O [citric acid trisodium salt]
Comparison between formulation groups ([1]; 1 hour): most efficient formulation
Increase in plasmid DNA delivered as compared to the control formulation [1]: more than 10 fold

O=C(O)c1ccccc1O [salicylic acid]
Effect on pathway closure (in words) (pathway closure; [2]): had an effect on pathway closure

Arg-Gly-Asp [reference compound]
Score (methylene blue) (pathway closure; [7]): 0.7 ± 0.4

Heparin [reference compound]
Score (methylene blue) (pathway closure; [6]): 0.3 ± 0.2

Insulin [reference compound]
Score (methylene blue) (pathway closure; additive concentration 3 mM, 24 h, scale 0 to 5, 0.5 or greater significant): 0.2 ± 0.2

Laminin
Score (methylene blue) (pathway closure; [13]): 1.0 ± 0.3

PEG-4
Score (methylene blue) (pathway closure; [5]): 2 ± 0.6

PEG-12
Score (methylene blue) (pathway closure; [5]): 0 ± 0

PEG-350
Score (methylene blue) (pathway closure; [5]): 0 ± 0

SIKVAV [reference compound]
Score (methylene blue) (pathway closure; [13]): 0.5 ± 0.5

Tyr-Ile-Gly-Ser-Arg-NH2 (YIGSR-NH2) [reference compound]
Score (methylene blue) (pathway closure; [13]): 0.3 ± 0.3
